Test results: ChEMBL document CHEMBL3507680, “University of Dundee, Gates Library screen for HepG2 cell viability”

Test: Human HepG2 cell viability assay in 384 well format
Assay type: toxicity, cell-based
Parameters: dose 125 nL, time 70.5 hour; concentration not given beside the values
Settings: HepG2 cells, read-out: Inhibition
Work on COc1cc2c(cc1OC)CN(Cc1ncccc1C(=O)O)CC2 yielded a cytotoxicity at 70.5 h of -13.5%.
Work on Cc1cnc(C)c(N2CC[C@H](N3CCOCC3)[C@H](CCCO)C2)n1 yielded a cytotoxicity at 70.5 h of -9.88%.
In the case of CCCc1cc(=O)[nH]c2nnc(SCC(C)=O)n12, the cytotoxicity at 70.5 h is reported as -6.78%.
Molecule O=C(COCc1ccccc1Cl)N1CCCC(n2ccnc2)C1 (stereo unspecified) has a cytotoxicity at 70.5 h of 17.5%.
With Cc1cc(CNC(=O)CCN2CCN(c3ccccn3)CC2)c(C)o1 the cytotoxicity at 70.5 h was 9.41%.
With CCC(C)C(=O)Nc1ccc2oc(=O)n(CCN(C)C)c2c1 (stereo unspecified) the cytotoxicity at 70.5 h was -1.79%.
O=C(c1cccnc1)N1CCO[C@@H]2CNC[C@@H]21 showed a cytotoxicity at 70.5 h of -4.67%.
O=C(N[C@@H]1CN(Cc2ccccc2)C[C@@H]2CCCO[C@@H]21)C1CC1 showed a cytotoxicity at 70.5 h of -1.76%.
In the case of O=C(NCc1ccccn1)[C@H]1COC[C@H]2CN(Cc3ccoc3)C[C@H]21, the cytotoxicity at 70.5 h is reported as -2.29%.
In the case of CN(Cc1nc(N)c2ccccc2n1)C1CCCN(c2cccnn2)C1 (stereo unspecified), the cytotoxicity at 70.5 h is reported as -5.77%.
Work on CN(C)C(=O)[C@@H]1C[C@H]2OCC[C@H]2N(CCOc2ccc(Cl)cc2)C1 yielded a cytotoxicity at 70.5 h of -4.26%.
With Cc1cnc2n(c1=O)C(CC(=O)NCc1cccnc1)CS2 (stereo unspecified) the cytotoxicity at 70.5 h was -0.178%.
Molecule CN(C)CCn1cc(NC(=O)NC(C)(C)c2nccs2)cn1 has a cytotoxicity at 70.5 h of -3.3%.
CCC(=O)N1CCC2(CC1)CC(CC(=O)N(C)C)c1ccc(F)cc12 (stereo unspecified) gave a cytotoxicity at 70.5 h of -1.89%.
With c1cncc(-c2ccc3c(c2)CCC32CCNCC2)c1 the cytotoxicity at 70.5 h was 17.8%.
Work on COc1ccc(C2CNCCN2C(=O)c2cccc3cccnc23)cc1 (stereo unspecified) yielded a cytotoxicity at 70.5 h of 12.4%.
CCc1nccn1CC1CCCN1S(=O)(=O)N1CCCOCC1 (stereo unspecified) gave a cytotoxicity at 70.5 h of 23.7%.
With Cc1cc(C)c(NC(=O)Nc2cnn(CC(O)CN(C)C)c2)c(C)c1 (stereo unspecified) the cytotoxicity at 70.5 h was -13.2%.
In the case of CCC(CO)NCc1ccc(-c2ccc(Cl)cc2)o1 (stereo unspecified), the cytotoxicity at 70.5 h is reported as 7.49%.
In the case of CCc1nc(C)c(-c2nccn2CC2CCN(C3CCCC3)CC2)[nH]1, the cytotoxicity at 70.5 h is reported as -2.56%.
Molecule O=C(NCc1nncn1C1CC1)c1ccccc1Oc1cccnc1 has a cytotoxicity at 70.5 h of -7.51%.
CC(NC(=O)NCc1cc[nH]n1)c1ccc2c(c1)CCC(=O)N2 (stereo unspecified) showed a cytotoxicity at 70.5 h of -19.8%.
Work on CS(=O)(=O)Nc1cccc(CNC(=O)c2cccs2)c1 yielded a cytotoxicity at 70.5 h of 19%.
Work on Cc1cc(C(F)(F)F)nn1C(C)C(=O)Nc1ccc(Cl)cn1 (stereo unspecified) yielded a cytotoxicity at 70.5 h of -6.74%.
In the case of O=C(NC1CC(F)(F)C1)[C@]12COC[C@H]1CN(Cc1ccsc1)C2, the cytotoxicity at 70.5 h is reported as -2.91%.
For O=C(C[S+]([O-])Cc1c(Cl)cccc1Cl)N1CCc2sccc2C1 (stereo unspecified), the cytotoxicity at 70.5 h was -7.37%.
Molecule CC(=O)N1CCN(C(=O)NCCCN(C)S(C)(=O)=O)CC1 has a cytotoxicity at 70.5 h of -5.97%.
For CN(Cc1n[nH]c2c1CCCC2)c1nc(C2CC2)nc2c1CCNCC2, the cytotoxicity at 70.5 h was -1.06%.
Molecule Fc1ccc2[nH]c(C3CCCN3CCCn3cccn3)nc2c1 (stereo unspecified) has a cytotoxicity at 70.5 h of -6.03%.
For COc1cccc(COCC(=O)N2CCCCCC2)c1, the cytotoxicity at 70.5 h was 17.5%.
Molecule COc1nn(C)cc1C(=O)NCC(OC)c1ccccc1C (stereo unspecified) has a cytotoxicity at 70.5 h of -3.02%.
In the case of CCC1(CC)CC(=O)N(CC(O)c2ccc(Cl)cc2)C1=O (stereo unspecified), the cytotoxicity at 70.5 h is reported as -4.91%.
Work on CN(C)[C@@H]1CN(C(=O)Cc2ccc(F)cc2)[C@@H]2CCCO[C@H]12 yielded a cytotoxicity at 70.5 h of 18.3%.
COc1cc(C)ccc1OCCN1CC[C@@]2(O)CCNC[C@H]2C1 gave a cytotoxicity at 70.5 h of -4.21%.
CCn1nc2c(cc1=O)CN(Cc1coc(-c3ccccc3)n1)CC2 showed a cytotoxicity at 70.5 h of -3.27%.
For Cc1noc2ncc(C(=O)N(CC3CCOC3)C3CC3)cc12 (stereo unspecified), the cytotoxicity at 70.5 h was -6.78%.
For O=S(=O)(N1CCCCC1)N1CCC(Oc2cnccn2)CC1, the cytotoxicity at 70.5 h was -2.24%.
In the case of c1ccc2oc(N3CCCCC3Cn3cncn3)nc2c1 (stereo unspecified), the cytotoxicity at 70.5 h is reported as 25.6%.
CCc1ccc(C(=O)Nc2ccc3c(c2)N(C)CCN(C)C3)o1 gave a cytotoxicity at 70.5 h of -8.89%.
CCc1nc(C2CCCN(C(=O)c3ccc(OC(C)C)nc3)C2)no1 (stereo unspecified) showed a cytotoxicity at 70.5 h of 17.6%.
Molecule CS(=O)(=O)NCCCN1CCCC1Cc1ccccc1 (stereo unspecified) has a cytotoxicity at 70.5 h of 4.23%.
COCCC1(C(=O)O)CCCN(Cc2cc3c(cc2Cl)OCO3)C1 (stereo unspecified) showed a cytotoxicity at 70.5 h of -5.22%.
Cc1ccc(-c2ccc(CC3NCCN(C)C3=O)cc2)cc1 (stereo unspecified) showed a cytotoxicity at 70.5 h of 20.9%.
CC(C)[C@H](C)NC1CCN(c2ccc(-c3cscn3)cc2)CC1 gave a cytotoxicity at 70.5 h of -14.3%.
Cc1noc(C)c1CN1C[C@H](OCc2ccncc2)[C@H]2OCCC[C@H]21 gave a cytotoxicity at 70.5 h of -13.2%.
Molecule CC(C)C(=O)N1CCN(C(=O)N(C)C)CC2(CC(=O)N(C)C2)C1 (stereo unspecified) has a cytotoxicity at 70.5 h of 37.2%.
With O=C(c1ncn2c1CNS(=O)(=O)c1ccccc1-2)N1CCCCC1 the cytotoxicity at 70.5 h was -2.38%.
Cc1cc(CN2C[C@@H]3COC[C@]3(CNS(C)(=O)=O)C2)no1 showed a cytotoxicity at 70.5 h of 1.21%.
COCC1(NC(=O)C(c2ccc(F)cc2)N(C)C)CCCC1 (stereo unspecified) showed a cytotoxicity at 70.5 h of 7.27%.
With CCc1nc(CN2CCCN(C(=O)Cc3cccs3)CC2)cs1 the cytotoxicity at 70.5 h was -6.45%.
In the case of CC(C)(C)c1cc(NC(=O)CN2CCCC2Cn2cccn2)on1 (stereo unspecified), the cytotoxicity at 70.5 h is reported as 1.91%.
With CC(C)Nc1ncnc2c1CCNCC2 the cytotoxicity at 70.5 h was 2.95%.
For CCN(Cc1ccco1)C(=O)c1cc(OC)c2c(c1)OCCO2, the cytotoxicity at 70.5 h was 5.2%.
Cc1cccc(-c2cccc(CC3(C(=O)O)CCOCC3)c2)c1 showed a cytotoxicity at 70.5 h of 9.91%.
In the case of Cn1cc(C2CCCN2C(=O)c2ccc(NC3CC3)nc2)cn1 (stereo unspecified), the cytotoxicity at 70.5 h is reported as 0.0682%.
Work on Cc1ccc2cc(C(=O)N3CCC(O)(C(F)(F)F)CC3)ccc2n1 yielded a cytotoxicity at 70.5 h of 0.437%.
